Several values for one entry are separate records, joined by “and”; a condition that tells them apart may be missing. Identical values can stand only once. Numbers after ± are expanded uncertainties.
Settings: isochoric method

C=CC(F)(F)F [1,1,1-trifluoro-2-propene]
Settings	mass density [kg/m3]
328 K, 2263.6 kPa, Liquid	899.4 ± 1.4
330 K, 1111.5 kPa, Gas	50 ± 0.2
330 K, 3005.2 kPa, Liquid	899.2 ± 1.4
333 K, 4120.1 kPa, Liquid	899 ± 1.4
335 K, 4863.3 kPa, Liquid	898.9 ± 1.4
338 K, 5981.5 kPa, Liquid	898.8 ± 1.4
340 K, 1167.6 kPa, Gas	49.9 ± 0.1
340 K, 6726 kPa, Liquid	898.7 ± 1.4
348 K, 2175.9 kPa, Liquid	796.5 ± 1.2
349 K, 2433.4 kPa, Liquid	796.4 ± 1.2
350 K, 1222.4 kPa, Gas	49.9 ± 0.1
350 K, 2692.4 kPa, Liquid	796.4 ± 1.2
351 K, 2951.1 kPa, Liquid	796.4 ± 1.2
352 K, 3211.8 kPa, Liquid	796.4 ± 1.2
353 K, 3472 kPa, Liquid	796.3 ± 1.2
354 K, 3732.3 kPa, Liquid	796.3 ± 1.2
355 K, 2036.4 kPa, Gas	99.8 ± 0.2
355 K, 3993.5 kPa, Liquid	796.3 ± 1.2
356 K, 4255.7 kPa, Liquid	796.3 ± 1.2
357 K, 4517.5 kPa, Liquid	796.2 ± 1.2
358 K, 4781.3 kPa, Liquid	796.2 ± 1.2
360 K, 1276.2 kPa, Gas	49.9 ± 0.1
360 K, 2101.2 kPa, Gas	99.8 ± 0.2
360 K, 5309.1 kPa, Liquid	796.2 ± 1.2
362 K, 5836.4 kPa, Liquid	796.1 ± 1.2
364 K, 2872 kPa, Fluid (supercritical or subcritical phases)	699.8 ± 1.1
364 K, 6364.7 kPa, Liquid	796.1 ± 1.2
366 K, 3226.1 kPa, Fluid (supercritical or subcritical phases)	699.8 ± 1.1
366 K, 6895.5 kPa, Liquid	796 ± 1.2
368 K, 3583.4 kPa, Fluid (supercritical or subcritical phases)	699.7 ± 1.1
370 K, 1329.2 kPa, Gas	49.9 ± 0.1
370 K, 2227.8 kPa, Gas	99.8 ± 0.2
370 K, 3943.7 kPa, Fluid (supercritical or subcritical phases)	699.7 ± 1.1
372 K, 4306.9 kPa, Fluid (supercritical or subcritical phases)	699.7 ± 1.1
374 K, 4672.5 kPa, Fluid (supercritical or subcritical phases)	699.6 ± 1.1
376 K, 5040.5 kPa, Fluid (supercritical or subcritical phases)	699.6 ± 1.1
378 K, 5410 kPa, Fluid (supercritical or subcritical phases)	699.5 ± 1.1
379 K, 3659.3 kPa, Gas	408.6 ± 0.9
380 K, 1381.9 kPa, Gas	49.9 ± 0.1
380 K, 2351.3 kPa, Gas	99.8 ± 0.2
380 K, 3350.9 kPa, Gas	199.9 ± 0.4
380 K, 3727.7 kPa, Gas	408.6 ± 0.8
380 K, 5781.1 kPa, Fluid (supercritical or subcritical phases)	699.5 ± 1.1
382 K, 6153.3 kPa, Fluid (supercritical or subcritical phases)	699.5 ± 1.1
384 K, 6527.3 kPa, Fluid (supercritical or subcritical phases)	699.4 ± 1.1
385 K, 3499.4 kPa, Gas	199.9 ± 0.5
385 K, 4070.4 kPa, Gas	408.5 ± 0.7
386 K, 6902.3 kPa, Fluid (supercritical or subcritical phases)	699.4 ± 1.1
390 K, 1433.6 kPa, Gas	49.9 ± 0.1
390 K, 2472.5 kPa, Gas	99.7 ± 0.2
390 K, 3645.5 kPa, Gas	199.8 ± 0.4
390 K, 4415.7 kPa, Gas	408.4 ± 0.7
395 K, 3789.8 kPa, Gas	199.8 ± 0.4
395 K, 4762.2 kPa, Gas	408.3 ± 0.7
400 K, 1484.4 kPa, Gas	49.8 ± 0.1
400 K, 2591.1 kPa, Gas	99.7 ± 0.2
400 K, 3931.9 kPa, Gas	199.7 ± 0.3
400 K, 5109.3 kPa, Gas	408.2 ± 0.6
405 K, 4073 kPa, Gas	199.7 ± 0.3
405 K, 5458.7 kPa, Gas	408.1 ± 0.6
410 K, 1534.9 kPa, Gas	49.8 ± 0.1
410 K, 2708 kPa, Gas	99.6 ± 0.2
410 K, 4212.5 kPa, Gas	199.6 ± 0.3
410 K, 5806.1 kPa, Gas	407.9 ± 0.6
415 K, 4350.8 kPa, Gas	199.5 ± 0.3
415 K, 6157.7 kPa, Gas	407.7 ± 0.6
420 K, 1584.7 kPa, Gas	49.7 ± 0.1
420 K, 2823 kPa, Gas	99.5 ± 0.2
420 K, 4487.8 kPa, Gas	199.4 ± 0.3
420 K, 6507.1 kPa, Gas	407.5 ± 0.6
425 K, 4623.8 kPa, Gas	199.2 ± 0.3
425 K, 6857.2 kPa, Gas	407.2 ± 0.6
430 K, 1633.5 kPa, Gas	49.7 ± 0.1
430 K, 2936 kPa, Gas	99.3 ± 0.2
430 K, 4758.7 kPa, Gas	199.1 ± 0.3

mass density
Settings	Gas	Liquid
360.73 K	–	723.7 ± 0.3 kg/m3
366.5 K	182.7 ± 3 kg/m3	–
369.78 K	205.8 ± 3 kg/m3	–
369.83 K	–	644 ± 0.3 kg/m3
371.67 K	231.2 ± 3 kg/m3	–
371.85 K	–	616.3 ± 0.3 kg/m3
374.16 K	–	571.5 ± 0.5 kg/m3
374.31 K	255.3 ± 3 kg/m3	–
375.35 K	287.6 ± 3 kg/m3	–
376.38 K	–	508.8 ± 1.2 kg/m3
376.41 K	323.1 ± 3.1 kg/m3	–
376.87 K	–	451.6 ± 5.7 kg/m3
376.93 K	408.8 ± 3.4 kg/m3 and 414.2 ± 3.5 kg/m3	414.2 ± 5.7 kg/m3

Source: the NIST ThermoML archive (doi:10.1021/acs.jced.8b00452)
